In US5162330A, “Dynemicin C antibiotic, its triacetyl derivative and pharmaceutical composition containing same” (Bristol-Myers Squibb Co., priority 1990, dated 1992):
≈ marks a conversion by molar mass, not a printed value. Read-outs that look alike come from different tables or passages of the source.

Assays:
[1] = test system: K. pneumoniae PCI 602; assay: In vitro antibacterial MIC; type: cell-based; details: Klebsiella pneumoniae
Experimental: (§1) The minimum inhibitory concentration (MIC) was determined by a two-fold serial tube dilution method using nutrient agar (pH7, Difco containing 10^5 cfu/ml).

[2] = test system: S. marcescens IPM-15; assay: In vitro antibacterial MIC; type: cell-based; details: Serratia marcescens
Experimental: as §1

[3] = test system: S. epidermidis 11-1230; assay: In vitro antibacterial MIC; type: cell-based
Experimental: as §1

[4] = test system: S. aureus smith; assay: In vitro antibacterial MIC; type: cell-based; details: Staphylococcus aureus, pH 7
Experimental: as §1

[5] = test system: P. cepecia No. 651; assay: In vitro antibacterial MIC; type: cell-based; details: 18 h, pH 7
Experimental: as §1

[6] = test system: E. coli 255; assay: In vitro antibacterial MIC; type: cell-based; details: pH 7
Experimental: as §1

[7] = test system: P. mirabilis IFO 3849; assay: In vitro antibacterial MIC; type: cell-based; details: Proteus mirabilis
Experimental: as §1

[8] = test system: P. rettgeri IPM-14; assay: In vitro antibacterial MIC; type: cell-based; details: Providencia rettgeri
Experimental: as §1

[9] = test system: X. maltophilia GN12873; assay: In vitro antibacterial MIC; type: cell-based; details: Stenotrophomonas maltophilia, pH 7, nutrient agar pH7, 32° C., 18 hours
Experimental: as §1

[10] = test system: M. morganii I510; assay: In vitro antibacterial MIC; type: cell-based; details: Morganella morganii, pH 7
Experimental: as §1

[11] = test system: P. aeruginosa IPM-9; assay: In vitro antibacterial MIC; type: cell-based; details: Pseudomonas aeruginosa
Experimental: as §1

[12] = test system: S. aureus IPM-24 (MRSA); assay: In vitro antibacterial MIC; type: cell-based; details: Staphylococcus aureus, 18 h, pH 7
Experimental: as §1

[13] = test system: P. aeruginosa KKA19; assay: In vitro antibacterial MIC; type: cell-based; details: Pseudomonas aeruginosa, pH 7, nutrient agar pH7, 32° C., 18 hours
Experimental: as §1

[14] = test system: E. coli Juhl A15119; assay: In vitro antibacterial MIC; type: cell-based; details: Escherichia coli
Experimental: as §1

[15] = test system: E. faecium A24817; assay: In vitro antibacterial MIC; type: cell-based; details: Enterococcus faecium, pH 7, nutrient agar pH7, 32° C., 18 hours
Experimental: as §1

[16] = test system: P. aeruginosa A20599; assay: In vitro antibacterial MIC; type: cell-based; details: Pseudomonas aeruginosa, pH 7
Experimental: as §1

[17] = test system: P. aeruginosa IPM-8; assay: In vitro antibacterial MIC; type: cell-based; details: Pseudomonas aeruginosa
Experimental: as §1

[18] = test system: P. aeruginosa A9843A; assay: In vitro antibacterial MIC; type: cell-based; details: Pseudomonas aeruginosa, 18 h, pH 7
Experimental: as §1

[19] = test system: X. maltophilia No. 661; assay: In vitro antibacterial MIC; type: cell-based; details: Stenotrophomonas maltophilia, pH 7, nutrient agar pH7, 32° C., 18 hours
Experimental: as §1

[20] = test system: S. marcescens IPM-16; assay: In vitro antibacterial MIC; type: cell-based; details: Serratia marcescens, IPM16, 18 h, pH 7
Experimental: as §1

[21] = test system: E. faecalis A9808; assay: In vitro antibacterial MIC; type: cell-based; details: Enterococcus faecalis, pH 7
Experimental: as §1

[22] = test system: P. vulgaris IPM-13; assay: In vitro antibacterial MIC; type: cell-based; details: Proteus vulgaris
Experimental: as §1

[23] = test system: S. aureus A15036 (MRSA); assay: In vitro antibacterial MIC; type: cell-based; details: Staphylococcus aureus, 18 h, pH 7
Experimental: as §1

[24] = test system: E. cloacae IPM-12; assay: In vitro antibacterial MIC; type: cell-based; details: Enterobacter cloacae
Experimental: as §1

[25] = test system: M. luteus PCI 1001; assay: In vitro antibacterial MIC; type: cell-based; details: Micrococcus luteus, PCI1001, pH 7, nutrient agar pH7, 32° C., 18 hours
Experimental: as §1

[26] = test system: P. cepecia A21213; assay: In vitro antibacterial MIC; type: cell-based; details: 18 h, pH 7
Experimental: as §1

[27] = test system: C. neoformans IAM4514; assay: In vitro antifungal MIC; type: cell-based, Cryptococcus neoformans
Experimental: (§2) The antifungal MICs of dynemicin C and its triacetate were determined by an agar dilution method on yeast morphology agar adjusted to pH7.0 with 1/15M phosphate buffer. A 5 μl aliquot of fungal suspension containing 10^6 cells/ml was inoculated onto the surface of the antibiotic-containing agar plates with a multiinoculator.

[28] = test system: Candida albicans ATCC 38247; assay: In vitro antifungal MIC; type: cell-based
Experimental: as §2

[29] = test system: Cryptococcus neoformans D49; assay: In vitro antifungal MIC; type: cell-based; details: pH 7
Experimental: as §2

[30] = test system: B16-F10 (murine melanoma) cells; assay: In vitro cytotoxicity; type: cell-based; details: Mus musculus, 72 hours, 37° C., neutral red, 540 nm
Experimental: (§3) Dynemicin C and its triacetate derivative were tested for in vitro cytotoxicity against murine and human tumor cell lines. Dynemicin A and its triacetate derivative were used as reference compounds. B16-F10 (murine melanoma) cells were grown to the logarithmic phase in enriched Eagle minimum essential medium (MEM) supplemented with fetal calf serum (FCS, 10%) and kanamycin (60 mcg/ml) and HCT-116 (human colon carcinoma) cells in Maccoy's 5A medium supplemented with FCS (10%), penicillin (100 μ/ml) and streptomycin (100 mcg/ml), and were harvested and inoculated into wells of the 96- or 24-well tissue culture plate with test materials at concentrations of 1.5×10^4, 1.3×10^4, 1.3×10^4, 2.5×10^4 and 3.0×10^4 cells/ml., respectively. They were incubated at 37° C. in a humidified atmosphere of 5% CO2 and 95% air for 72 hours. The cytotoxic activities were determined colorimetrically at 540 nm after staining viable cells with 0.006% neutral red solution.

[31] = test system: HCT-116 (human colon carcinoma) cells; assay: In vitro cytotoxicity; type: cell-based; details: 72 hours, 37° C., neutral red, 540 nm
Experimental: as §3

[32] = Cryptococcus neoformans, IAM4514, 40 h, pH 7
[33] = ATCC38247, pH 7, Candida albicans ATCC 38247, amphotericin resistant strain, yeast morphology agar pH7.0, 28° C., 40 hours, read-out: MIC
[34] = Cryptococcus neoformans, D49, 40 h

Compound: NCC[C@H](O)C(=O)N[C@@H]1C[C@H](N)[C@@H](O[C@H]2O[C@H](CN)[C@@H](O)[C@H](O)[C@H]2O)[C@H](O)[C@H]1O[C@H]1O[C@H](CO)[C@@H](O)[C@H](N)[C@H]1O [Amikacin, reference compound]
- MIC ([1]; PCI602, pH 7, K. pneumoniae PCI 602, nutrient agar pH7, 32° C., 18 hours, read-out: MIC): 1.6 µg/mL (≈ 2730 nM)
- MIC ([2]; IPM15, pH 7, S. marcescens IPM-15, nutrient agar pH7, 32° C., 18 hours, read-out: MIC): 12.5 µg/mL (≈ 21300 nM)
- MIC ([3]; Staphylococcus epidermidis, 111230, pH 7, S. epidermidis 11-1230, nutrient agar pH7, 32° C., 18 hours, read-out: MIC): 25 µg/mL (≈ 42700 nM)
- MIC ([4]; S. aureus smith, two-fold serial dilution, nutrient agar pH7, 32° C., 18 hours, read-out: MIC): 1.6 µg/mL (≈ 2730 nM)
- MIC [5]: > 100000 ng/mL
- MIC ([6]; Escherichia coli, E. coli 255, nutrient agar pH7, 32° C., 18 hours, read-out: MIC): 6.3 µg/mL (≈ 10800 nM)
- MIC ([7]; IFO3849, pH 7, P. mirabilis IFO 3849, nutrient agar pH7, 32° C., 18 hours, read-out: MIC): 25 µg/mL (≈ 42700 nM)
- MIC ([8]; IPM14, pH 7, P. rettgeri IPM-14, nutrient agar pH7, 32° C., 18 hours, read-out: MIC): 12.5 µg/mL (≈ 21300 nM)
- MIC [9]: > 100000 ng/mL
- MIC ([10]; M. morganii I510, nutrient agar pH7, 32° C., 18 hours, read-out: MIC): 25 µg/mL (≈ 42700 nM)
- MIC ([11]; IPM9, pH 7, P. aeruginosa IPM-9, nutrient agar pH7, 32° C., 18 hours, read-out: MIC): 1.6 µg/mL (≈ 2730 nM)
- MIC [12]: 100 µg/mL (≈ 171000 nM)
- MIC [13]: 3.1 µg/mL (≈ 5290 nM)
- MIC ([14]; JUHLA15119, pH 7, E. coli Juhl A15119, nutrient agar pH7, 32° C., 18 hours, read-out: MIC): 12.5 µg/mL (≈ 21300 nM)
- MIC [15]: 100 µg/mL (≈ 171000 nM)
- MIC ([16]; P. aeruginosa A20599, nutrient agar pH7, 32° C., 18 hours, read-out: MIC): 1.6 µg/mL (≈ 2730 nM)
- MIC ([17]; IPM8, pH 7, P. aeruginosa IPM-8, nutrient agar pH7, 32° C., 18 hours, read-out: MIC): 6.3 µg/mL (≈ 10800 nM)
- MIC [18]: 3.1 µg/mL (≈ 5290 nM)
- MIC [19]: > 100000 ng/mL
- MIC [20]: 100 µg/mL (≈ 171000 nM)
- MIC ([21]; E. faecalis A9808, nutrient agar pH7, 32° C., 18 hours, read-out: MIC): 50 µg/mL (≈ 85400 nM)
- MIC ([22]; IPM13, pH 7, P. vulgaris IPM-13, nutrient agar pH7, 32° C., 18 hours, read-out: MIC): 6.3 µg/mL (≈ 10800 nM)
- MIC [23]: 3.1 µg/mL (≈ 5290 nM)
- MIC ([24]; IPM12, pH 7, E. cloacae IPM-12, nutrient agar pH7, 32° C., 18 hours, read-out: MIC): 25 µg/mL (≈ 42700 nM)
- MIC [25]: 3.1 µg/mL (≈ 5290 nM)
- MIC [26]: > 100000 ng/mL

Compound: C[C@@H]1[C@H](O)[C@@H](C)/C=C/C=C/C=C/C=C/C=C/C=C/C=C/[C@H](O[C@@H]2O[C@H](C)[C@@H](O)[C@H](N)[C@@H]2O)C[C@@H]2O[C@](O)(C[C@@H](O)C[C@@H](O)[C@H](O)CC[C@@H](O)C[C@@H](O)CC(=O)O[C@H]1C)C[C@H](O)[C@H]2C(=O)O [Amphotericin B, reference compound]
- MIC [27, 32]: 0.4 µg/mL (≈ 433 nM)
- MIC [28, 33]: 50 µg/mL (≈ 54100 nM)
- MIC [29, 34]: 0.2 µg/mL (≈ 216 nM)

Compound: COC1=C(C(=O)O)C(C)C23OC24c2cc(OC(C)=O)c5c(c2NC3C#CC=CC#CC14)C(=O)c1c(OC(C)=O)ccc(OC(C)=O)c1C5=O (stereo not shown) [Dynemicin A acetate, reference compound]
- IC50 [30]: 0.7 ng/mL

Compound: COC1=C(C(=O)O)C(C)C23OC24c2cc(O)c5c(c2NC3C#CC=CC#CC14)C(=O)c1c(O)ccc(O)c1C5=O (stereo not shown) [Dynemicin A, reference compound]
- MIC [27, 32]: 0.2 µg/mL (≈ 372 nM)
- IC50 [31]: 3.2 ng/mL (≈ 5.95 nM)
- IC50 [30]: 5.2 ng/mL (≈ 9.67 nM)
- MIC ([28]; Candida albicans, ATCC38247, 40 h, pH 7): < 0.0031 µg/mL
- MIC [29, 34]: 0.2 µg/mL (≈ 372 nM)
- MIC ([1]; PCI602, 18 h, pH 7): 0.0032 µg/mL (≈ 5.95 nM)
- MIC ([2]; IPM15, 18 h, pH 7): 0.0032 µg/mL (≈ 5.95 nM)
- MIC ([3]; Staphylococcus epidermidis, 111230, 18 h, pH 7): < 2.5e-05 µg/mL
- MIC ([4]; 18 h): < 2.5e-05 µg/mL
- MIC [5]: 0.8 ng/mL (≈ 1.49 nM)
- MIC ([6]; Escherichia coli, 255, 18 h): 0.0032 µg/mL (≈ 5.95 nM)
- MIC ([7]; IFO3849, 18 h, pH 7): 0.0016 µg/mL (≈ 2.98 nM)
- MIC ([8]; IPM14, 18 h, pH 7): 0.0008 µg/mL (≈ 1.49 nM)
- MIC [9]: 1.6 ng/mL (≈ 2.98 nM)
- MIC ([10]; I510, 18 h): 0.0008 µg/mL (≈ 1.49 nM)
- MIC ([11]; IPM9, 18 h, pH 7): 0.0063 µg/mL (≈ 11.7 nM)
- MIC [12]: < 2.5e-05 µg/mL
- MIC [13]: 0.0032 µg/mL (≈ 5.95 nM)
- MIC ([14]; JUHLA15119, 18 h, pH 7): 0.0032 µg/mL (≈ 5.95 nM)
- MIC [15]: < 2.5e-05 µg/mL
- MIC ([16]; A20599, 18 h): 0.0032 µg/mL (≈ 5.95 nM)
- MIC ([17]; IPM8, 18 h, pH 7): 0.0032 µg/mL (≈ 5.95 nM)
- MIC [18]: 0.0016 µg/mL (≈ 2.98 nM)
- MIC [19]: 0.8 ng/mL (≈ 1.49 nM)
- MIC [20]: 0.0032 µg/mL (≈ 5.95 nM)
- MIC ([21]; A9808, 18 h): < 2.5e-05 µg/mL
- MIC ([22]; IPM13, 18 h, pH 7): 0.0008 µg/mL (≈ 1.49 nM)
- MIC [23]: < 2.5e-05 µg/mL
- MIC ([24]; IPM12, 18 h, pH 7): 0.0016 µg/mL (≈ 2.98 nM)
- MIC [25]: < 2.5e-05 µg/mL
- MIC [26]: 0.8 ng/mL (≈ 1.49 nM)

Compound: CC(=O)N1CCN(c2ccc(OCC3COC(Cn4ccnc4)(c4ccc(Cl)cc4Cl)O3)cc2)CC1 (stereo not shown) [Ketoconazole, reference compound]
- MIC ([27]; IAM4514, pH 7, Cryptococcus neoformans IAM 4514, yeast morphology agar pH7.0, 28° C., 40 hours, read-out: MIC): 0.1 µg/mL (≈ 188 nM)
- MIC [28, 33]: 6.3 µg/mL (≈ 11900 nM)
- MIC ([29]; Cryptococcus neoformans D49, yeast morphology agar pH7.0, 28° C., 40 hours, read-out: MIC): 0.1 µg/mL (≈ 188 nM)
